Data on two molecules can be found in PMC7037862, “Tricyclic Nucleobase Analogs and Their Ribosides as Substrates and Inhibitors of Purine-Nucleoside Phosphorylases III. Aminopurine Derivatives” (Molecules, 2020).

Data set [1] in a line: Ionization constants (pKa), determined spectrophotometrically. In kind it is physicochemical. The settings on record: phosphate and/or acetate buffers, protonation, read-out: pKa (protonation). The procedure:
Fluorescence spectra were measured on a Varian Eclipse instrument (Varian Corp., Palo Alto, CA, USA), and UV absorption kinetic experiments were performed on a Cary 5000 (Varian Corp., Palo Alto, CA, USA) thermostated spectrophotometer. Fluorescence yields were determined relative to tryptophan (0.15) or 1,N^6-ethenoadenosine in water (0.56, see ref. [2]). Emission spectra were measured in semi-micro cuvettes, pathlength 4 mm, to diminish the inner-filter effect. Typical spectral resolution was 2.5 nm. The ionization constants (pKa values) were determined spectrophotometrically using 20–50 mM phosphate and/or acetate buffers.

For data set [2], the target named is T1, E. coli PNP (Escherichia coli, UniProt P0ABP8).
T1 construct: made in house; host or cells: E. coli
T1 sequence (P0ABP8 2-239): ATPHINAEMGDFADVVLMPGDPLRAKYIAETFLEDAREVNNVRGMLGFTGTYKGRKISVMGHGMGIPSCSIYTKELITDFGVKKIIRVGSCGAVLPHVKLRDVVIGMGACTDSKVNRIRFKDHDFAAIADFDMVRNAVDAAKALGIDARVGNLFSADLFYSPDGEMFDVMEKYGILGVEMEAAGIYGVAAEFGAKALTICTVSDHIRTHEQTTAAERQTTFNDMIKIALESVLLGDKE
The data set can be described thus: Inhibition of phosphorolysis of purine nucleosides catalyzed by E. coli PNP. Format: biochemical. Conditions: competitive inhibition of phosphorolysis of purine nucleosides; read-out: inhibition constant, Ki. The procedure: (§1) Etheno-tubercidine (6) is therefore a good candidate to observe enzyme-ligand complexes by spectral methods, as shown below. No inhibition of the calf PNP was observed, at least in moderate concentrations (up to 50 μM) that we used.
(§2) Enzymatic ribosylation reactions were carried out in 1 mL cuvettes (pathlength 4 mm) in ~50 mM HEPES buffer, pH 7.3, using 0.5 mM R1P as a ribose source. Reactions were followed fluorimetrically (see Section 2.4). On a larger scale (2–4 mg), the reactions were run in Eppendorf tubes, volume 2–3 mL, using either R1P (3–10 mM) or 7-methylguanosine as ribose sources. Products were purified by semi-preparative HPLC, concentrated and the final solutions kept frozen. Their structure has been confirmed by NMR (see Section 2.4 and Supplementary Materials) and by MS: comp. 3: m/z = 292.10385, comp. 4: m/z = 292.10400, comp. 5: m/z = 292.10398, calculated for C12H13N5O4 + H: 292.10403. Phosphorolysis reactions were run in 40–50 mM phosphate buffer, pH 7.0 or 6.5, and followed spectrally or fluorimetrically. Kinetic parameters were calculated by standard methods.

For data set [3], the target named is T2, calf PNP (Bos taurus, UniProt P55859).
T2 construct: made in house; host or cells: E. coli
T2 sequence (P55859 1-289): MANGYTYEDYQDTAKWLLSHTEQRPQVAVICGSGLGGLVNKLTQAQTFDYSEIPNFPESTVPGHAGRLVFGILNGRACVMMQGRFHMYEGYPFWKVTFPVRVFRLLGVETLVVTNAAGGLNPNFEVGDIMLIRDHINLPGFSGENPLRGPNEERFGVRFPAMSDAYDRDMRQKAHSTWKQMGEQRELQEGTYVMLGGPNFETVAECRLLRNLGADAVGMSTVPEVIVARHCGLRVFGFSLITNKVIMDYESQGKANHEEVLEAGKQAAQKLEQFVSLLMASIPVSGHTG
The data set is described as follows: Inhibition of calf PNP. Format: biochemical. Conditions: concentrations up to 50 μM. The procedure: as §1, §2

The target of data set [4] is T1, E. coli PNP. The data set is described as follows: Fluorescence titration of E. coli PNP with ligand (enzyme-ligand complexes). In kind it is binding. Conditions: 40 mM phosphate buffer, pH 7, 20 °C; protein 11 μM per subunit. The method, then:
Additionally, the fluorescence excitation spectra reveal fluorescence energy transfer (FRET) from the protein to the complexed ligand, since they show marked enhancement in the region 270–280 nm, where the tyrosine residues of the PNP molecule absorb (Figure 10).
Figure 10 Changes in fluorescence excitation (a) and emission spectra (b), observed during the titration of E. coli PNP with N^2,3-etheno-2-aminopurine (2). […] Spectra of the free ligand (3.5 μM) are given for comparison (points). Excitation spectrum of the protein, monitored at 310 nm, is given in black. Conditions: 40 mM phosphate, pH 7, at 20 °C. Concentration of protein was 10.1 μM (per subunit); that of the titrant was 0 to 3.5 μM. Lower panels: Fluorescence difference spectra, calculated from data presented on panels (a) and (b), (c) difference excitation (observed at 380 nm), (d) difference emission spectra, excited at 275 nm. Substrate concentrations are 0.17, 0.69, 1.37, 2.36 and 3.31 μM.
Etheno-tubercidine (6) forms somewhat similar fluorescent complexes with the E. coli PNP. As shown below, FRET from the protein to the ligand is evident in the excitation spectra (Figure 11), and the ligand fluorescence blue shifted from 415 to ca. 390 nm (Figure 11b,c). In this case more than 60% of protein fluorescence is quenched when protein binding sites are saturated (cf. Figure 11). […]

Substrate in data set [5]: OC[C@H]1O[C@@H](n2ccn3c4ncnc-4cnc23)[C@H](O)[C@@H]1O
The data set can be described thus: Enzymatic phosphorolysis of ribosides, calf PNP wild type. In kind it is biochemical. Conditions: other: phosphorolysis, calf PNP-wt, 40 mM phosphate buffer pH 7. The procedure:
Recombinant E. coli PNP, calf spleen PNP, and their mutated forms were expressed in E. coli and purified according to the procedures described earlier. Enzyme concentrations were calculated per monomer.
as §2

By pKa is commonly meant the pH at which an ionisable group is half protonated. By Ki is commonly meant the equilibrium dissociation constant of an inhibitor or competing ligand from its target. On to `OC[C@H]1O[C@@H](n2ccc3c2ncn2ccnc32)[C@H](O)[C@@H]1O` [Compound 6, 1,N^6-etheno-tubercidine], for which the pKa in data set [1] amounted to 5.2. In data set [2], the Ki was ~4.5 µM. The “inhibition of the calf PNP” value in data set [3] was “No inhibition”. Moreover, in data set [4], the “protein fluorescence quenched at saturation of binding sites” value is reported as “more than 60%”.

B1: calf PNP-wt (Bos taurus) (protein)
chain: T2 sequence (P55859 1-289)
notes: made in house; host or cells: E. coli
By Km is commonly meant the concentration of substrate that gives half-maximal velocity. In the case of B1, in data set [5], the Km came to 4.6 µM.
